Data taken from PubChem BioAssay AID1963427 (Molecular Pharmacology Branch, DTP, NCI, 2024).

Tested on: 317291-083-R-J1-PDC complex spheroid growth
Assay: Anticancer human tumor 317291-083-R-J1-PDC patient-derived soft tissue sarcoma cell line growth inhibition [Asc]
Conditions: for IC50: curve of first compound; for viability, T/C: stronger effect = lower value
Procedure: Multicellular complex tumor spheroid response to apoptosis pathway targeting inhibitors Alrizomadlin, Pelcitoclax, and Dasminapant in combination with a variety of drugs and investigational agents in selected tumor cell lines
The MDM2 inhibitor alrizomadlin, the Bcl-2/Bcl-xL inhibitor pelcitoclax, and the IAPs inhibitor dasminapant were evaluated both individually and in combination with standard of care and investigational anticancer small molecules within a complex spheroid model of solid tumors. . Complex spheroids include a stromal component modeled by human endothelial cells (HUVEC) and fibroblasts modeled by human mesenchymal stem cells (MSCs). The concentration ranges selected for each drug and investigational agent were based upon clinically achievable concentrations if the clinical Cmax of the agent was known.
Compounds. The drugs and investigational agents: alrizomadlin (APG-115; NSC831270), pelcitoclax (APG-1252; NSC835773), dasminapant (APG-1387;NSC834197), TAK-243 (NSC785004), copanlisib (NSC809693), olaparib (NSC753686), talazoparib (NSC767125), cobimetinib (NSC 768068), eltanexor (KPT-8602, NSC 794443), abemaciclib (NSC 768073), sotorasib (NSC818433), adagrasib (NSC 831453), MRTX-1133 (NSC 836407), Iadademestat (ORY1001, NSC 806812), and RMC-4630 (NSC839698), were obtained from the NCI Developmental Therapeutics Program Chemical Repository. The FDA-approved anticancer drug set is available from the Developmental Therapeutics Program at https://dtp.cancer.gov/organization/dscb/obtaining/available plates.htm. […] The stock solutions were prepared in dimethyl sulfoxide (DMSO, Sigma-Aldrich, St. Louis, MO, cat. D2650) at 800-fold the tested concentration and stored at -70 degrees C prior to their use. All drugs and investigational agents were tested over a range starting from a high concentration at or near the clinical Cmax and decreasing in half-log increments. If the clinical Cmax for an agent had not been determined, the highest concentration tested was 10 microM.
The patient-derived cancer (PDC) cell lines include five colon adenocarcinomas: 186277-243-T-J2-PDC, 616215-338-R-J1-PDC, 439559-082-T-J2-PDC, 463943-066-T-J2-PDC, and 519858-162-T-J1-PDC; three pancreatic carcinomas: 323965-272-R-J2-PDC, 521955-158-R6-J3-PDC, and 521955-158-R2-J5-PDC; two uterine sarcomas: 327498-152-R-J2-PDC and 993429-296-R-J1-PDC; two rhabdomyosarcomas: 755483-174-R-J1-PDC and 772245-204-R-J1-PDC; two soft tissue sarcomas: 126254-015-R-J1-PDC and 494315-158-R-J1-PDC; two malignant fibrous histiocytomas: 317291-083-R-J1-PDC and 596521-263-R-J1-PDC; two breast carcinomas: 171881-019-R-J1-PDC and 885512-296-R-J2-PDC; and one ovarian carcinoma: 6556581-035-R-J-PDC were obtained from the NCI PDMR, (https://pdmr.cancer.gov). The established cell lines HSSY-2 synovial sarcoma (RRID:CVCL 8719), SYO-1 synovial sarcoma (RRID:CVCL_7146), MPNST malignant peripheral neural sheath tumor were obtained from the Sloan Kettering Institute. The following established cell lines were purchased from the American Type Culture Collection (ATCC, Manassas, VA), Sor the received from the NCI repository:, PANC-1 pancreatic carcinoma (CRL-1469, RRID:CVCL_0480), OVCAR-5 ovarian carcinoma (RRID:CVCL_1628), OVCAR-8 ovarian carcinoma (RRID:CVCL_1629), , MCF-7 breast carcinoma (CRL-12584, RRID:CVCL_0031), MDA-MB-231 breast carcinoma (CRL-12532, RRID:CVCL_0062), NCI-H1876 small cell lung carcinoma (CRL-5902, RRID:CVCL_1503), NCI-H510A small cell lung carcinoma (HTB-184, RRID:CVCL_1565), NCI-H1417 (CRL-5869, RRID:CVCL_1469), and NCI-H196 small cell lung carcinoma (CRL-5823, RRID:CVCL_1509). Dr. Peter Houghton (Greehey Children's Cancer Research Institute, University of Texas Health Science Center, San Antonio, TX) provided Rh-18 rhabdomyosarcoma (RRID:CVCL_1659). Pooled donor human umbilical vein endothelial cells (HUVEC, Lonza, cat. CC-2519) and human mesenchymal stem cells (hMSC, Lonza, cat. PT-2501) were purchased from Lonza (Walkersville, MD).
Cell Culture. […]

[1] = second compound 0.00949 µM, first compound 0.00316 µM
[2] = second compound 0.00949 µM, first compound 0.01 µM
[3] = second compound 0.00949 µM, first compound 0.0316 µM
[4] = second compound 0.00949 µM, first compound 0.1 µM
[5] = second compound 0.03 µM, first compound 0.00316 µM
[6] = second compound 0.03 µM, first compound 0.01 µM
[7] = second compound 0.03 µM, first compound 0.0316 µM
[8] = second compound 0.03 µM, first compound 0.1 µM
[9] = second compound 0.0949 µM, first compound 0.00316 µM
[10] = second compound 0.0949 µM, first compound 0.01 µM
[11] = second compound 0.0949 µM, first compound 0.0316 µM
[12] = second compound 0.0949 µM, first compound 0.1 µM
[13] = second compound 0.3 µM, first compound 0.00316 µM
[14] = second compound 0.3 µM, first compound 0.01 µM
[15] = second compound 0.3 µM, first compound 0.0316 µM
[16] = second compound 0.3 µM, first compound 0.1 µM
[17] = second compound 0.949 µM, first compound 0.00316 µM
[18] = second compound 0.949 µM, first compound 0.01 µM
[19] = second compound 0.949 µM, first compound 0.0316 µM
[20] = second compound 0.949 µM, first compound 0.1 µM
[21] = second compound 3 µM, first compound 0.00316 µM
[22] = second compound 3 µM, first compound 0.01 µM
[23] = second compound 3 µM, first compound 0.0316 µM
[24] = second compound 3 µM, first compound 0.1 µM
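Further: compound exposure lasted seven days after spheroids formed for three days.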
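Wherever viability, T/C is given: 100% = DMSO vehicle control wells.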

Compound `CCN1CCN(Cc2ccc(Nc3ncc(F)c(-c4cc(F)c5nc(C)n(C(C)C)c5c4)n3)nc2)CC1` + CCN1C(C(=O)NC23CCC(C(=O)O)(CC2)CC3)C(c2cccc(Cl)c2F)C2(C(=O)Nc3cc(Cl)ccc32)C12CCCCC2 has an IC50 (second compound 0.00949 µM) of over 1 µM, an IC50 (second compound 0.03 µM) of over 1 µM and an IC50 (second compound 0.0949 µM) of 0.814 µM. It also gave an IC50 (second compound 0.3 µM) of over 1 µM, an IC50 (second compound 0.949 µM) of 0.837 µM and an IC50 (second compound 3 µM) of over 1 µM. For the same compound, the viability, T/C [1] was 95%, the viability, T/C [2] was 95.8% and the viability, T/C [3] was 100%. It also gave a viability, T/C [4] of 115%, a viability, T/C (second compound 0.00949 µM, first compound 0.316 µM) of 91.2% and a viability, T/C (second compound 0.00949 µM, first compound 1 µM) of 55.4%. The viability, T/C [5] was 99.7%, the viability, T/C [6] was 101% and the viability, T/C [7] was 97.9%. It also gave a viability, T/C [8] of 103%, a viability, T/C (second compound 0.03 µM, first compound 0.316 µM) of 80.1% and a viability, T/C (second compound 0.03 µM, first compound 1 µM) of 53%. It also gave a viability, T/C [9] of 97.7%, a viability, T/C [10] of 89.3% and a viability, T/C [11] of 97%. For the same compound, the viability, T/C [12] was 112%, the viability, T/C (second compound 0.0949 µM, first compound 0.316 µM) was 88.4% and the viability, T/C (second compound 0.0949 µM, first compound 1 µM) was 41.6%. For the same compound, the viability, T/C [13] was 100%, the viability, T/C [14] was 93.1% and the viability, T/C [15] was 80.6%. It also gave a viability, T/C [16] of 86.4%, a viability, T/C (second compound 0.3 µM, first compound 0.316 µM) of 68.1% and a viability, T/C (second compound 0.3 µM, first compound 1 µM) of 79.6%. The viability, T/C [17] was 106%, the viability, T/C [18] was 96.7% and the viability, T/C [19] was 79.1%. It also gave a viability, T/C [20] of 91.1%, a viability, T/C (second compound 0.949 µM, first compound 0.316 µM) of 73.1% and a viability, T/C (second compound 0.949 µM, first compound 1 µM) of 44.5%. For the same compound, the viability, T/C [21] was 77.5%, the viability, T/C [22] was 77% and the viability, T/C [23] was 78.9%. For the same compound, the viability, T/C [24] was 72.2%, the viability, T/C (second compound 3 µM, first compound 0.316 µM) was 56.6% and the viability, T/C (second compound 3 µM, first compound 1 µM) was 60.9%.

Compound `Cn1ncnc1[C@H]1c2n[nH]c(=O)c3cc(F)cc(c23)N[C@@H]1c1ccc(F)cc1` + CCN1C(C(=O)NC23CCC(C(=O)O)(CC2)CC3)C(c2cccc(Cl)c2F)C2(C(=O)Nc3cc(Cl)ccc32)C12CCCCC2 has an IC50 (second compound 0.00949 µM) of over 0.1 µM, an IC50 (second compound 0.03 µM) of over 0.1 µM and an IC50 (second compound 0.0949 µM) of over 0.1 µM. It also gave an IC50 (second compound 0.3 µM) of over 0.1 µM, an IC50 (second compound 0.949 µM) of over 0.1 µM and an IC50 (second compound 3 µM) of over 0.1 µM. The viability, T/C (second compound 0.00949 µM, first compound 0.000316 µM) was 108%, the viability, T/C (second compound 0.00949 µM, first compound 0.001 µM) was 88.4% and the viability, T/C [1] was 102%. It also gave a viability, T/C [2] of 100%, a viability, T/C [3] of 81.9% and a viability, T/C [4] of 66.9%. It also gave a viability, T/C (second compound 0.03 µM, first compound 0.000316 µM) of 99.6%, a viability, T/C (second compound 0.03 µM, first compound 0.001 µM) of 107% and a viability, T/C [5] of 105%. The viability, T/C [6] was 81.3%, the viability, T/C [7] was 76.1% and the viability, T/C [8] was 87.3%. For the same compound, the viability, T/C (second compound 0.0949 µM, first compound 0.000316 µM) was 95.3%, the viability, T/C (second compound 0.0949 µM, first compound 0.001 µM) was 96% and the viability, T/C [9] was 103%. The viability, T/C [10] was 86.3%, the viability, T/C [11] was 77.6% and the viability, T/C [12] was 70.4%. The viability, T/C (second compound 0.3 µM, first compound 0.000316 µM) was 106%, the viability, T/C (second compound 0.3 µM, first compound 0.001 µM) was 101% and the viability, T/C [13] was 107%. It also gave a viability, T/C [14] of 89.5%, a viability, T/C [15] of 73.9% and a viability, T/C [16] of 64.6%. For the same compound, the viability, T/C (second compound 0.949 µM, first compound 0.000316 µM) was 95.4%, the viability, T/C (second compound 0.949 µM, first compound 0.001 µM) was 89.3% and the viability, T/C [17] was 103%. For the same compound, the viability, T/C [18] was 93.6%, the viability, T/C [19] was 75.8% and the viability, T/C [20] was 72.1%. The viability, T/C (second compound 3 µM, first compound 0.000316 µM) was 82%, the viability, T/C (second compound 3 µM, first compound 0.001 µM) was 69% and the viability, T/C [21] was 77.4%. The viability, T/C [22] was 79.7%, the viability, T/C [23] was 65.1% and the viability, T/C [24] was 62.7%.
